{
  "source": "paper PMC4386669",
  "about": "(Cell reports, 2014)",
  "key": {"Ewing sarcoma cell lines [1]": {"test_system": "Ewing sarcoma cell lines", "assay": "Dose-response cytotoxicity in Ewing sarcoma cell lines", "assay_type": "cell-based"}, "SAOS2": {"test_system": "SAOS2", "assay": "Dose-response cytotoxicity in SAOS2", "assay_type": "cell-based"}, "[2]": {"details": "ref Morton et al., 2005, 2000; cited from earlier work"}, "ES-6 cells [3]": {"test_system": "ES-6 cells", "assay": "Dose-response cytotoxicity in ES-6 cells", "assay_type": "cell-based", "details": "for Sensitivity (cytotoxicity): 144 hours"}, "EWS cell lines": {"test_system": "EWS cell lines", "assay": "Drug-pair cytotoxicity with response surface model"}, "PARP1": {"biological_target": "PARP1 (Homo sapiens, UniProt P09874)", "sequence (P09874 whole entry)": "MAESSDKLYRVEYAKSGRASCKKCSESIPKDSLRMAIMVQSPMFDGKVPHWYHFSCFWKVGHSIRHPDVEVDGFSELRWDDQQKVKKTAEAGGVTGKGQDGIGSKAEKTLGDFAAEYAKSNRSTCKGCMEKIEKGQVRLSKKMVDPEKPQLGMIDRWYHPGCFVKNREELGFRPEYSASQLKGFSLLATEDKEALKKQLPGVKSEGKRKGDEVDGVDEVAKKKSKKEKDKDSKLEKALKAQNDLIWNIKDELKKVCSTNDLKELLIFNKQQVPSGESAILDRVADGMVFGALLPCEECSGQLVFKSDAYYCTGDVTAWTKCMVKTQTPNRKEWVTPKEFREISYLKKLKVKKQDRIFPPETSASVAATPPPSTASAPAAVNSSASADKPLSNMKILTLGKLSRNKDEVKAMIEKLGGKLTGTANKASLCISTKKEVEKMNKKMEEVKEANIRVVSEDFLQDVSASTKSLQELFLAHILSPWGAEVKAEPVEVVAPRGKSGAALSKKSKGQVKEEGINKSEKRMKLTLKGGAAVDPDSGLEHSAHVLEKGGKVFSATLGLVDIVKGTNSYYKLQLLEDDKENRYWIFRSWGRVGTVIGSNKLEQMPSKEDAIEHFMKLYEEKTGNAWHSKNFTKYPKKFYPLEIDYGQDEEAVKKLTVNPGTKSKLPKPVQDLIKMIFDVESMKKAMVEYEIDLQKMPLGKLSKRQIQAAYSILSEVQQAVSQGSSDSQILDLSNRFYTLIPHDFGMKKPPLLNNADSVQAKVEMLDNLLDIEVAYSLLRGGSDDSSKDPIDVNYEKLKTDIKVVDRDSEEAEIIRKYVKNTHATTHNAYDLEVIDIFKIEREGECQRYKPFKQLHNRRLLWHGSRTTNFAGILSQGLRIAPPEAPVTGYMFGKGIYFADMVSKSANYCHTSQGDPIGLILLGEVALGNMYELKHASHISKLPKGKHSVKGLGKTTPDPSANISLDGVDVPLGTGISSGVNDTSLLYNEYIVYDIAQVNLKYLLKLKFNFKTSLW", "details": "10 micromolar PARPi + 0.01% MMS"}, "[4]": {"assay": "Plasma and tumor pharmacokinetics in mice with orthotopic xenografts", "assay_type": "in vivo, CD1-nude mice", "details": "for concentration at 12 h: CD1-nude, mouse, orthotopic xenograft tumor, po; for Murine equivalent dose (most appropriate dose for twice-daily oral administration in mice): from plasma AUC in mice compared with plasma PK data in patients"}, "[5]": {"details": "TMZ to 10 mg/kg in mice; BMN-673 to 0.1 mg/kg (of the MED)"}, "ES-6 cells [6]": {"test_system": "ES-6 cells", "details": "72 hours, ref Garnett et al., 2012; cited from earlier work"}, "Ewing sarcoma cell lines [7]": {"test_system": "Ewing sarcoma cell lines", "details": "ref Brenner et al., 2012, Garnett et al.; cited from earlier work"}, "ES-8 EWS cells": {"test_system": "ES-8 EWS cells", "assay": "Single-cell alkali gel electrophoresis", "assay_type": "cell-based", "details": "after 12 hours of exposure to the PARPi"}, "ES-6 cells [8]": {"test_system": "ES-6 cells", "details": "later timepoints, ref Garnett et al., 2012; cited from earlier work"}, "[9]": {"details": "translocation-positive EWS cell lines, RSM"}, "[10]": {"details": "EW-8, ES-8, and ES-1 cells, 72 hours of exposure"}},
  "note": "Like-named read-outs stand apart in the source and are kept apart here.",
  "data": [
    {"smiles": "CCc1c2c(nc3ccc(O)cc13)-c1cc3c(c(=O)n1C2)COC(=O)[C@]3(O)CC", "note": "[SN-38]", "values": [
      {"measurement": "EC50", "setting": "Ewing sarcoma cell lines [1]; 144 hours, all EWS cell lines tested excluding ES-6", "value": "< 10", "unit": "nM"},
      {"measurement": "EC50", "setting": "SAOS2", "value": "< 100", "unit": "nM"},
      {"measurement": "Cmax and AUC of SN-38 in mouse plasma versus human plasma", "setting": "[2]", "value": "slightly higher"},
      {"measurement": "Potency compared to other EWS cell lines", "setting": "ES-6 cells [3]", "value": "significantly lower potency"},
      {"measurement": "Concentration at which PARPi is significantly potentiated", "setting": "EWS cell lines; [9]", "value": "1 to 10", "unit": "nM"}
    ]},
    {"smiles": "C[C@]1(c2nc3c(C(N)=O)cccc3[nH]2)CCCN1", "note": "[veliparib]", "values": [
      {"measurement": "PARP trapping potential (rank order)", "setting": "PARP1", "value": "BMN-673 > olaparib > veliparib"},
      {"measurement": "Sensitivity (cytotoxicity)", "setting": "Ewing sarcoma cell lines [1]; all EWS cell lines except ES-6, 144 hours", "value": "marginal"},
      {"measurement": "concentration at 12 h", "setting": "[4]", "value": "≥ 50", "unit": "nM"},
      {"measurement": "Murine equivalent dose (most appropriate dose for twice-daily oral administration in mice)", "setting": "[4]", "value": 12.5, "unit": "mg/kg"},
      {"measurement": "Sensitivity (cytotoxicity)", "setting": "ES-6 cells [3]", "value": "resistant"}
    ]},
    {"smiles": "Cn1nnc2c(C(N)=O)ncn2c1=O", "note": "[TMZ, temozolomide]", "values": [
      {"measurement": "EC50", "setting": "Ewing sarcoma cell lines [1]; 144 h", "value": "> 100000", "unit": "nM"},
      {"measurement": "Dose reduction needed to make the BMN-673 + TMZ combination tolerable", "setting": "[5]", "value": 70, "unit": "%"},
      {"measurement": "Fold higher concentration of TMZ required for the same level of potentiation as IRN", "setting": "EWS cell lines; potentiation of PARPi-mediated killing of EWS cells", "value": "≥ 1,000 fold"},
      {"measurement": "Concentration required for the same level of PARPi potentiation", "setting": "EWS cell lines; [9]", "value": "10 to 100", "unit": "µM"}
    ]},
    {"smiles": "O=C(c1cc(Cc2n[nH]c(=O)c3ccccc23)ccc1F)N1CCN(C(=O)C2CC2)CC1", "note": "[olaparib]", "values": [
      {"measurement": "Sensitivity (cytotoxicity)", "setting": "ES-6 cells [6]", "value": "resistant"},
      {"measurement": "Sensitivity of EWS cell lines", "setting": "Ewing sarcoma cell lines [7]", "value": "sensitive"},
      {"measurement": "Sensitivity (cytotoxicity)", "setting": "Ewing sarcoma cell lines [1]; [10]", "value": "sensitive"},
      {"measurement": "Basal level of DNA damage (comet tail moment)", "setting": "ES-8 EWS cells; 10 μM", "value": "elevated"},
      {"measurement": "concentration at 12 h", "setting": "[4]", "value": "≥ 90", "unit": "nM"},
      {"measurement": "Murine equivalent dose (most appropriate dose for twice-daily oral administration in mice)", "setting": "[4]", "value": 50, "unit": "mg/kg"},
      {"measurement": "Sensitivity in colony assays", "setting": "ES-6 cells [8]", "value": "some sensitivity"},
      {"measurement": "Potency compared to other EWS cell lines", "setting": "ES-6 cells [3]", "value": "significantly lower potency"}
    ]},
    {"smiles": "Cn1ncnc1[C@H]1c2n[nH]c(=O)c3cc(F)cc(c23)N[C@@H]1c1ccc(F)cc1", "note": "[BMN-673]", "values": [
      {"measurement": "Sensitivity (cytotoxicity)", "setting": "Ewing sarcoma cell lines [1]; [10]", "value": "sensitive"},
      {"measurement": "Basal level of DNA damage (comet tail moment)", "setting": "ES-8 EWS cells; 1 or 10 μM", "value": "elevated"},
      {"measurement": "concentration at 12 h", "setting": "[4]", "value": "≥ 15", "unit": "nM"},
      {"measurement": "Murine equivalent dose (most appropriate dose for twice-daily oral administration in mice)", "setting": "[4]", "value": 0.125, "unit": "mg/kg"},
      {"measurement": "Sensitivity (cytotoxicity)", "setting": "ES-6 cells [3]", "value": "resistant"}
    ]}
  ]
}
